This is an account of results in ChEMBL document CHEMBL5724796, “Tm Shift (DSF) assay results for EUbOPEN Chemogenomics Library” (2024).

The structures appear in SMILES notation. Residues, ends and D or L forms follow the SMILES beside them. *: point of attachment. Boc = CC(C)(C)OC(=O)*

Test [1] concerns the target Fibroblast growth factor receptor 2 (Homo sapiens) (UniProt P21802). The conditions noted are these: Compound concentration 20.0 uM.
Description: Thermal Shift Assay. Domain: start/stop: T457-E768
Test [2] addresses T1, Peregrin (Homo sapiens) (UniProt P55201).
T1 sequence (whole entry): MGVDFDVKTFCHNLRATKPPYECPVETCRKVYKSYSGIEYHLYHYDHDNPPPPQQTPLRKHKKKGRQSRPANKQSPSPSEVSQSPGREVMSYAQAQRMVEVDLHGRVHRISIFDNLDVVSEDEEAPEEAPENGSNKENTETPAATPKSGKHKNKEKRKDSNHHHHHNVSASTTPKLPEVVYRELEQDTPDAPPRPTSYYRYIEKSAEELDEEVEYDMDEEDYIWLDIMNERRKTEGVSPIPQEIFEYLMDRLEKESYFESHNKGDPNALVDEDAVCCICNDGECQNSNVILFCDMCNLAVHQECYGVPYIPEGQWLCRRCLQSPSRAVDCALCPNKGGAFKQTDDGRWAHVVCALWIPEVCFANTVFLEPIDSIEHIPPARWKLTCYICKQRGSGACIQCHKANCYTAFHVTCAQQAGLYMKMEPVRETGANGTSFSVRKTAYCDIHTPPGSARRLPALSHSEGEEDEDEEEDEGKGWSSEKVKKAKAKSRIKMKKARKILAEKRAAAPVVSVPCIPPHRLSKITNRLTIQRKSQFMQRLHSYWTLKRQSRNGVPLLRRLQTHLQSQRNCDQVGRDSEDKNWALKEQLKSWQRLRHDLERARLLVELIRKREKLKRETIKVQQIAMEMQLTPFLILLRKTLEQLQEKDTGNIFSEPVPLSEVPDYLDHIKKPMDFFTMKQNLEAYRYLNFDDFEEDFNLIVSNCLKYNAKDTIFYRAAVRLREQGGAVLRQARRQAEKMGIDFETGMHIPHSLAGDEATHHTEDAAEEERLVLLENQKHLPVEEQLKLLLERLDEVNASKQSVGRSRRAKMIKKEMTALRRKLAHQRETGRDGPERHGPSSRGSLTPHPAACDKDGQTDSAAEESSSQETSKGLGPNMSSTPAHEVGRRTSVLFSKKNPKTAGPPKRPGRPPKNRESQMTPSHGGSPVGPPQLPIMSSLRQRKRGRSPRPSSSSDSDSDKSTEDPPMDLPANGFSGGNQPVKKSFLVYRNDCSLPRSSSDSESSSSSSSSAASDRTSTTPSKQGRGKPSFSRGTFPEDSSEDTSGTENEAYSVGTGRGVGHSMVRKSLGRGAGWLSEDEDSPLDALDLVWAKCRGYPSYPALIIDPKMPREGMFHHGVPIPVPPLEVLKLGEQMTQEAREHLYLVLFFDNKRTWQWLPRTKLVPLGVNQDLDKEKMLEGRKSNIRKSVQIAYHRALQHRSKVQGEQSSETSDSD
The settings on record: Compound concentration 20.0 uM.

By ΔTm is commonly meant the change in melting temperature against a reference sample.

Sequence of Fibroblast growth factor receptor 2 (Homo sapiens) (P21802 22-821 limits assumed): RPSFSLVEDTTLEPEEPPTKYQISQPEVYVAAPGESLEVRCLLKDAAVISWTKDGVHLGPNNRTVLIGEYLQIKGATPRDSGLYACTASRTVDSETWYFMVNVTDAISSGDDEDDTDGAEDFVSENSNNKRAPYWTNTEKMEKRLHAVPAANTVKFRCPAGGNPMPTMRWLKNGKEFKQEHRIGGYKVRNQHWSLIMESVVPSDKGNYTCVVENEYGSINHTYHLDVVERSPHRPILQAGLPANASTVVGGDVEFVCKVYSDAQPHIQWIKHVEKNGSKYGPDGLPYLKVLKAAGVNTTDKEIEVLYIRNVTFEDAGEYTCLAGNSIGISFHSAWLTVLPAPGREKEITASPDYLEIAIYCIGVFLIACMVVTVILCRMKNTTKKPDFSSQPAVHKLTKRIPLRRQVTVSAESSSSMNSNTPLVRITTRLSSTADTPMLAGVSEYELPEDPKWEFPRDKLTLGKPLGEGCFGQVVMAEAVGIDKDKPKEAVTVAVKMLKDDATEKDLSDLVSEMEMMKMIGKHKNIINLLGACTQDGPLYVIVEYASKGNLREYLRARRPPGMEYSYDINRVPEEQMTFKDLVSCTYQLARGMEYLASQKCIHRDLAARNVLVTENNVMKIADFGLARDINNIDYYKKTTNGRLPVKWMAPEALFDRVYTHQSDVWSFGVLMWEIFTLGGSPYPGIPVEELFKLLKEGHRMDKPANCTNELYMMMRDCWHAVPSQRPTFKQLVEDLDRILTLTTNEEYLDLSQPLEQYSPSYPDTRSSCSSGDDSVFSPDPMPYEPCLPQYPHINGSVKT

In the case of `NC(=O)c1cnc(N[C@@H]2CCCC[C@@H]2N)nc1Nc1cccc(-n2nccn2)c1`, the values for the ΔTm in test [1] and in test [2] were 0.98 °C and -1.09 °C, respectively.

Take `O=c1[nH][nH]c(=O)c2cc(OCC3CCCCC3)ccc12`: the ΔTm in test [1] stood at 1.11 °C; in test [2], 2.63 °C.

Turning to `COc1ccc(CNc2nc(N3CCC[C@H]3CO)ncc2C(=O)NCc2ncccn2)cc1Cl`, the ΔTm in test [1] was -0.2 °C; in test [2], 0.12 °C.

In the case of `CCc1oc2ccccc2c1C(=O)c1cc(Br)c(O)c(Br)c1`, the results for the ΔTm in test [1] and in test [2] were -1.86 °C and -11 °C, respectively.

Consider `CC#C[C@]1(O)CC[C@H]2[C@@H]3CCC4=CC(=O)CCC4=C3[C@@H](c3ccc(N(C)C)cc3)C[C@@]21C`, for which the thermal shift (ΔTm) in test [1] is 0.14 °C; in test [2] it was -2.63 °C.

For the compound `CCOc1ccc(Cc2cc([C@]34OC[C@](CO)(O3)[C@@H](O)[C@H](O)[C@H]4O)ccc2Cl)cc1`, the ΔTm was 0.47 °C in test [1] and 0.95 °C in test [2].

Regarding `CNCC[C@@H](Oc1ccccc1C)c1ccccc1`, the ΔTm in test [1] is 0.34 °C; in test [2], -1.53 °C.

As for `Cc1cc(C)cc(Oc2ccc(CNC(=O)[C@H](C)N)cc2C)c1`, the ΔTm is 0.01 °C in test [1] and -1.68 °C in test [2].

On to `Cc1ccc(C(=O)Nc2ccc(S(=O)(=O)O)c3cc(S(=O)(=O)O)cc(S(=O)(=O)O)c23)cc1NC(=O)c1cccc(NC(=O)Nc2cccc(C(=O)Nc3cc(C(=O)Nc4ccc(S(=O)(=O)O)c5cc(S(=O)(=O)O)cc(S(=O)(=O)O)c45)ccc3C)c2)c1`, for which the ΔTm in test [1] was -1.68 °C; in test [2] it was -1.58 °C.

Turning to `COc1cc2c(NCC3CCN(C)CC3)cc(-c3ccc(C)o3)nc2cc1OCCCN1CCCC1`, the ΔTm is 0.16 °C in test [1] and -0.88 °C in test [2].

Turning to `CNC(=O)Cn1cc(-c2ccc3c(c2)[C@H](F)C[C@]32NC(=O)N(CC(=O)N(Cc3ccc(F)cc3)[C@@H](C)C(F)(F)F)C2=O)cn1`, the results for the ΔTm in test [1] and in test [2] were -0.18 °C and -0.07 °C, respectively.

As for `CCC[C@H]1CNCc2c1[nH]c(=O)c(C#N)c2N1CCC2(CC1)CC2`, the ΔTm in test [1] is 0.92 °C; in test [2], -0.83 °C.

For `CCN1C(C)(C)CC(Oc2ccc(C(=O)Nc3ccc(NC(=O)Nc4cc(C(C)(C)C)on4)cc3)nc2)CC1(C)C`, the ΔTm is -2 °C in test [1] and -1.03 °C in test [2].

For the compound `Cc1cc(C(=O)CN2CCCCC2)c(C)n1-c1ccc(Cl)cc1`, the ΔTm in test [1] is -0.09 °C; in test [2] it was -1.17 °C.

In the case of `CC(C)(C)OC(=O)N1CCC[C@H]1C(=O)N1CCC[C@H]1C=O` (Boc-Pro-Pro-aldehyde), the ΔTm in test [1] is 0.01 °C; in test [2], -0.14 °C.

On to `CCCC1O[C@@H]2C[C@H]3[C@@H]4CCC5=CC(=O)C=C[C@]5(C)[C@H]4[C@@H](O)C[C@]3(C)[C@]2(C(=O)CO)O1` (stereo partly drawn), for which the values for the ΔTm in test [1] and in test [2] were -0.77 °C and -1.04 °C, respectively.

For `CCc1c(C)nc(-c2ccc(Cl)s2)nc1Nc1ccc(CC(=O)O)cc1`, the ΔTm in test [1] is -0.19 °C; in test [2] it was 1.24 °C.

Consider `CCCCCCCC(=O)N[C@H](CN1CCCC1)[C@H](O)c1ccc2c(c1)OCCO2`, for which the ΔTm in test [1] was found to be 0.38 °C; in test [2], 1.02 °C.

Consider `CCCN1CCN(c2ccc(C(=O)NC3(C(=O)NCC#N)CCCCC3)cc2)CC1`, for which the results for the ΔTm in test [1] and in test [2] were 0.76 °C and -1.09 °C, respectively.

As for `CCCOc1ccc(CCc2nc3cc(-c4c(C)noc4C)ccc3n2CCN2CCOCC2)cc1`, the figures for the ΔTm in test [1] and in test [2] were -0.48 °C and -1.09 °C, respectively.

As for `O=C(CCCCCCC(=O)Nc1ccc([C@H]2O[C@@H](CSc3nc(-c4ccccc4)c(-c4ccccc4)o3)C[C@@H](c3ccc(CO)cc3)O2)cc1)NO`, the ΔTm was -10.7 °C in test [1] and 0 °C in test [2].

As for `COc1nc(Nc2cc(S(C)(=O)=O)ccc2N[C@@H](c2cccc3c2OC(F)(F)O3)c2ncccc2Cl)nc(N2CCNCC2)n1`, the ΔTm in test [1] is -8.88 °C; in test [2], 0 °C.

Consider `CCS(=O)(=O)Cc1cnc(Oc2ccc(F)cc2F)c(-c2cc(C)c3c(=O)[nH]ccn23)c1`, for which the ΔTm came out at 0.35 °C in test [1] and 2.87 °C in test [2].

In the case of `O=C(NCc1ccc(F)cc1)C1CCN(S(=O)(=O)c2cc(Cl)cc(Cl)c2)CC1`, the ΔTm in test [1] worked out at 0.75 °C; in test [2] it was 2.64 °C.

`N#Cc1ccc(N2N=C3c4ccc(C(=O)O)cc4CC[C@@H]3[C@@H]2C2CCCC2)cc1Cl`: the ΔTm in test [1] was -1.06 °C; in test [2] it was -8.37 °C.

Turning to `CN(C)Cc1ccc(S(=O)(=O)n2ccc(/C=C/C(=O)NO)c2)cc1`, the ΔTm was 0.36 °C in test [1] and -0.83 °C in test [2].

As to `Cc1cc(OCCCNCCC(N)=O)ccc1Cc1c(O[C@@H]2O[C@H](CO)[C@@H](O)[C@H](O)[C@H]2O)n[nH]c1C(C)C`, the ΔTm in test [1] was determined as 0.45 °C; in test [2], 1.37 °C.

As for `C[C@H](NC(=O)[C@H](Cc1ccccc1)NC(=O)OCc1ccccc1)C(=O)CF`, the ΔTm in test [1] is 0.14 °C; in test [2], -1.31 °C.

For the compound `O=C(C=Cc1ccc(O)cc1)c1ccc(O)cc1O`, the ΔTm in test [1] was determined as 1.26 °C; in test [2], 0.82 °C.

As for `CCCc1nc(C)c2c(=O)nc(-c3cc(S(=O)(=O)N4CCN(CC)CC4)ccc3OCC)[nH]n12`, the thermal shift (ΔTm) in test [1] came out at 0.41 °C; in test [2], 1.02 °C.

With `CCn1ncc2c(NC3CCOCC3)c(-c3nnc(Cc4sc(C)nc4C)o3)cnc21`, the figures for the ΔTm in test [1] and in test [2] were 0.47 °C and 0.65 °C, respectively.

In the case of `Cc1cc(C)c(-c2[nH]nc(C)c2C)cc1C(=O)N1CC(c2ccc(C#N)cc2)C1`, the ΔTm is -0.22 °C in test [1] and -1.03 °C in test [2].

As for `CCCOc1cc(OCCCCN(C)C)cc(Oc2cc3c(cc2NS(=O)(=O)c2ccc(OC)c(OC)c2)n(C)c(=O)n3C)c1`, the ΔTm in test [1] was 0.62 °C; in test [2] it was 9.12 °C.

Take `CC(=O)Nc1ccc(OC[C@](C)(O)C(=O)Nc2ccc([N+](=O)[O-])c(C(F)(F)F)c2)cc1`: the values for the ΔTm in test [1] and in test [2] were 2.59 °C and 0.97 °C, respectively.

On to `O=C(CN1CCN(C(=O)c2ccco2)CC1)Nc1cc(C(F)(F)F)ccc1Cl`, for which the ΔTm was 0.27 °C in test [1] and -0.04 °C in test [2].

In the case of `CC(=O)N[C@@H](CC(=O)O)C(=O)N[C@@H](CC(N)=O)C(=O)N[C@@H](CC(C)C)C(=O)N[C@H](C=O)CC(=O)O`, the ΔTm in test [1] was 0.44 °C; in test [2] it was 1.79 °C.

As for `CCS(=O)(=O)N1CCC([C@@H](C)n2c(C)c(C(=O)NCc3c(OC)cc(C)[nH]c3=O)c3ccccc32)CC1`, the ΔTm in test [1] is 0.02 °C; in test [2], -1.1 °C.

As to `Nc1nc(NC2CC2)cc(-c2cccc(Cl)c2Cl)n1`, the ΔTm is 0.04 °C in test [1] and 0.95 °C in test [2].

For the compound `CC(=O)N[C@@H](CCCCNC(=O)CSCCNC(=O)CCNC(=O)[C@H](O)C(C)(C)COP(=O)(O)OP(=O)(O)OC[C@H]1O[C@@H](n2cnc3c(N)ncnc32)[C@H](O)[C@@H]1OP(=O)(O)O)C(N)=O`, the shift in melting temperature (ΔTm) in test [1] came to 0.51 °C; in test [2], 1.95 °C.

`COc1ccc2c(c1)OC(C)(C)C(c1ccccc1)C2c1ccc(OCCN2CCCC2)cc1` (stereo not drawn): the results for the ΔTm in test [1] and in test [2] were 0.15 °C and -2.59 °C, respectively.

With `CS(=O)(=O)c1ccc(Oc2cc(F)cc(C#N)c2)c2c1[C@H](O)C(F)(F)C2`, the ΔTm in test [1] was -0.21 °C; in test [2], 1.71 °C.

Regarding `C[C@]1(c2nc3c(C(N)=O)cccc3[nH]2)CCCN1`, the ΔTm in test [1] is -0.4 °C; in test [2], 1.27 °C.

For the compound `Nc1ncnc2c1ncn2[C@@H]1O[C@H](C(=O)N2CCN(CC(=O)Nc3cccc4c3CNC4=O)CC2)[C@@H](O)[C@H]1O`, the ΔTm in test [1] is 0.74 °C; in test [2], -1.21 °C.

In the case of `Cn1ncnc1[C@H]1C2=c3c(cc(F)cc3=N[C@@H]1c1ccc(F)cc1)C(=O)NN2`, the values for the ΔTm in test [1] and in test [2] were 0.09 °C and 3.07 °C, respectively.

For `Cc1cccc(N/N=C(\C(=O)c2cccs2)C(=O)C(F)(F)F)c1`, the ΔTm in test [1] was -0.22 °C; in test [2], 1.4 °C.

For `CC(C)(F)C[C@H](N[C@@H](c1ccc(-c2ccc(S(C)(=O)=O)cc2)cc1)C(F)(F)F)C(=O)NC1(C#N)CC1`, the ΔTm in test [1] is 0.18 °C; in test [2] it was -1.04 °C.

For `CNc1nccc(CN(CC2CCNCC2)S(=O)(=O)c2ccc(S(=O)(=O)N(Cc3ccc(Cl)cc3)C3CCCC3)cc2)n1`, the results for the ΔTm in test [1] and in test [2] were -0.24 °C and 1.3 °C, respectively.

Take `O=C(O)Cn1nnc(-c2ccc(CN(CCCCOc3ccc(CN4CCCC4)cc3)CCc3ccccc3)cc2)n1`: the ΔTm in test [1] is -2.96 °C; in test [2] it was -2.23 °C.

For `O=C(O)/C(S)=C/c1c[nH]c2ccc(F)cc12`, the results for the ΔTm in test [1] and in test [2] were 0.66 °C and -0.77 °C, respectively.
